{"source": "patent US11696918B2", "about": "(priority 2019, dated 2023)", "key": {"in vivo": {"assay": "in vivo", "details": "female, BALB/c, mouse"}, "[1]": {"details": "for quantifiable in at least 1 of 3 mice through: PCV"}, "HSV-2": {"tested_on": "HSV-2", "assay": "qPCR of HSV DNA copy number in dorsal root ganglia at day 28", "type": "in vivo, BALB/c mice"}, "[2]": {"details": "single dose"}, "herpes simplex virus": {"tested_on": "herpes simplex virus", "details": "long-term suppressive treatment; cited from earlier work"}, "HSV-2 MS strain": {"tested_on": "HSV-2 MS strain", "type": "in vivo, BALB/c mice", "details": "for Survival (surviving/total mice): 28 days; for Clinical Scores Overall Mean: daily vaginal clinical score, 4-point system of Table 4"}, "[3]": {"details": "cited from earlier work"}, "[4]": {"details": "cited from earlier work", "remark": "listed apart in the source"}, "HSV infected cells": {"tested_on": "HSV infected cells", "details": "in HSV infected cells; cited from earlier work"}, "[5]": {"details": "Group 1 HSV-2 A 125 mg/kg PO daily"}, "[6]": {"details": "Group 2: Valcyclovir 125 mg/kg po"}, "[7]": {"details": "Group 2 HSV-2 B 63 mg/kg PO daily"}}, "note": "Where two headings read alike, the source gives them in different places.", "data": [{"smiles": "Nc1nc2c(ncn2CCC(CO)CO)c(=O)[nH]1", "note": "[PCV, penciclovir]", "values": [{"measurement": "AUC(0-inf)", "setting": "in vivo; iv, 63 mg/kg, AUCinf", "result": 15200, "unit": "ng·h/mL"}, {"measurement": "AUC(0-t)", "setting": "in vivo; iv, 63 mg/kg, AUClast", "result": "15100 ± 2600", "unit": "ng·h/mL"}, {"measurement": "AUC(0-t)", "setting": "in vivo; iv, 63 mg/kg, AUClast Mean", "result": 15100, "unit": "ng·h/mL"}, {"measurement": "Cmax", "setting": "in vivo; iv, 63 mg/kg, Cmax", "result": 8800, "unit": "ng/mL"}, {"measurement": "Cmax", "setting": "in vivo; iv, 63 mg/kg, Cmax Mean", "result": 8800, "unit": "ng/mL"}, {"measurement": "Tmax", "setting": "in vivo; iv, 63 mg/kg, Tmax, Group 1: 125 mg/kg VACV and 63 mg/kg FCV, iv, single dose, plasma", "result": 0.083, "unit": "h"}, {"measurement": "half-life", "setting": "in vivo; iv, 63 mg/kg, t1/2, Group 1: 125 mg/kg VACV and 63 mg/kg FCV, iv, single dose, plasma", "result": 1.29, "unit": "h"}, {"measurement": "half-life", "setting": "in vivo; iv, 63 mg/kg, t1/2, plasma PCV, Group 1: 125 mg/kg VACV and 63 mg/kg FCV iv", "result": 1.29, "unit": "h"}, {"measurement": "AUC(0-inf)", "setting": "in vivo; po, 16 mg/kg, AUCinf", "result": 6200, "unit": "ng·h/mL"}, {"measurement": "AUC(0-t)", "setting": "in vivo; po, 16 mg/kg, AUClast Mean", "result": 6100, "unit": "ng·h/mL"}, {"measurement": "Cmax", "setting": "in vivo; po, 16 mg/kg, Cmax Mean", "result": 4590, "unit": "ng/mL"}, {"measurement": "Tmax", "setting": "in vivo; po, 16 mg/kg, Tmax", "result": 0.5, "unit": "h"}, {"measurement": "half-life", "setting": "in vivo; po, 16 mg/kg, t1/2", "result": 1.89, "unit": "h"}, {"measurement": "AUC(0-inf)", "setting": "in vivo; po, 32 mg/kg, AUCinf", "result": 5140, "unit": "ng·h/mL"}, {"measurement": "AUC(0-t)", "setting": "in vivo; po, 32 mg/kg, AUClast Mean", "result": 5010, "unit": "ng·h/mL"}, {"measurement": "Cmax", "setting": "in vivo; po, 32 mg/kg, Cmax Mean", "result": 3150, "unit": "ng/mL"}, {"measurement": "Tmax", "setting": "in vivo; po, 32 mg/kg, Tmax", "result": 0.5, "unit": "h"}, {"measurement": "half-life", "setting": "in vivo; po, 32 mg/kg, t1/2", "result": 2.34, "unit": "h"}, {"measurement": "AUC(0-inf)", "setting": "in vivo; po, 63 mg/kg", "result": 11300, "unit": "ng·h/mL"}, {"measurement": "AUC(0-t)", "setting": "in vivo; po, 63 mg/kg", "result": "10600 ± 727", "unit": "ng·h/mL"}, {"measurement": "Cmax", "setting": "in vivo; po, 63 mg/kg", "result": "8120 ± 565", "unit": "ng/mL"}, {"measurement": "Tmax", "setting": "in vivo; po, 63 mg/kg", "result": 0.25, "unit": "h"}, {"measurement": "half-life", "setting": "in vivo; po, 63 mg/kg", "result": 0.97, "unit": "h"}, {"measurement": "AUC(0-inf)", "setting": "in vivo; po, 63 mg/kg, AUCinf", "result": 19200, "unit": "ng·h/mL"}, {"measurement": "AUC(0-t)", "setting": "in vivo; po, 63 mg/kg, AUClast Mean", "result": 18400, "unit": "ng·h/mL"}, {"measurement": "Cmax", "setting": "in vivo; po, 63 mg/kg, Cmax Mean", "result": 7100, "unit": "ng/mL"}, {"measurement": "Tmax", "setting": "in vivo; po, 63 mg/kg, Tmax", "result": 0.5, "unit": "h"}, {"measurement": "half-life", "setting": "in vivo; po, 63 mg/kg, t1/2", "result": 2.34, "unit": "h"}, {"measurement": "AUC(0-inf)", "setting": "in vivo; po, 125 mg/kg, AUCinf", "result": 50900, "unit": "ng·h/mL"}, {"measurement": "AUC(0-t)", "setting": "in vivo; po, 125 mg/kg, AUClast Mean", "result": 50200, "unit": "ng·h/mL"}, {"measurement": "Cmax", "setting": "in vivo; po, 125 mg/kg, Cmax Mean", "result": 16900, "unit": "ng/mL"}, {"measurement": "half-life", "setting": "in vivo; po, 125 mg/kg, t1/2", "result": 1.31, "unit": "h"}, {"measurement": "AUC(0-inf)", "setting": "in vivo; po, AUCinf", "result": 85500, "unit": "ng·h/mL"}, {"measurement": "AUC(0-t)", "setting": "in vivo; po, AUClast Mean", "result": 84500, "unit": "ng·h/mL"}, {"measurement": "Cmax", "setting": "in vivo; po, Cmax Mean", "result": 31200, "unit": "ng/mL"}, {"measurement": "Tmax", "setting": "in vivo; po, Tmax, Group 8: VACV 500 mg/kg and FCV 250 mg/kg in combination, po, plasma", "result": 1, "unit": "h"}, {"measurement": "half-life", "setting": "in vivo; po, t1/2, Group 8: VACV 500 mg/kg and FCV 250 mg/kg in combination, po, plasma", "result": 4.3, "unit": "h"}, {"measurement": "half-life", "setting": "in vivo; po, t1/2, plasma PCV, Group 8: 500 mg/kg VACV + 250 mg/kg FCV po", "result": 4.3, "unit": "h"}, {"measurement": "t1/2", "setting": "[1]; Group 3: 63 mg/kg FCV, po, single dose, plasma", "result": 0.97, "unit": "h"}, {"measurement": "quantifiable in at least 1 of 3 mice through", "setting": "[1]; Group 1: 125 mg/kg VACV + 63 mg/kg FCV iv", "result": 24, "unit": "h"}, {"measurement": "quantifiable in at least 1 of 3 mice through", "setting": "[1]; Group 5: 63 mg/kg VACV + 32 mg/kg FCV po", "result": 24, "unit": "h"}, {"measurement": "quantifiable in at least 1 of 3 mice through", "setting": "[1]; Group 8: 500 mg/kg VACV + 250 mg/kg FCV po", "result": 24, "unit": "h"}, {"measurement": "AUClast Mean", "setting": "[1]; female, BALB/c, mouse, in vivo, po, 63 mg/kg", "result": 10609, "unit": "ng·h/mL"}]}, {"smiles": "CC(C)[C@H](N)C(=O)OCCOCn1cnc2c(=O)[nH]c(N)nc21", "note": "[A, Valacyclovir]", "values": [{"measurement": "Number Undetectable <3 (qPCR copy number/rxn)", "setting": "HSV-2; [5]", "result": 5}, {"measurement": "qPCR Copy number/rxn Overall Mean", "setting": "HSV-2; [5]", "result": 4.92, "unit": "Copy number/rxn"}, {"measurement": "Clinical Observations: Dead (animals)", "setting": "[2]; [6]", "result": 0}, {"measurement": "Clinical Observations: Hypoactivity (animals)", "setting": "[2]; [6]", "result": 0}, {"measurement": "Clinical Observations: Normal (animals)", "setting": "[2]; [6]", "result": 12}, {"measurement": "Clinical Observations: Ruffled Fur (animals)", "setting": "[2]; [6]", "result": 0}, {"measurement": "Clinical Observations: Shoveling (animals)", "setting": "[2]; [6]", "result": 0}, {"measurement": "Clinical Observations: Squinting (animals)", "setting": "[2]; [6]", "result": 0}, {"measurement": "reduction of transmission risk", "setting": "herpes simplex virus", "result": 46, "unit": "%"}, {"measurement": "clinical score index (fraction of mice with a clinical score)", "setting": "HSV-2 MS strain; Group 1 (A alone), A 125 mg/kg", "result": 0.5}, {"measurement": "Clinical (mice that had a clinical score/total)", "setting": "HSV-2 MS strain; [5]", "result": "5/10"}, {"measurement": "Hair loss (mice that had hair loss/total)", "setting": "HSV-2 MS strain; [5]", "result": "8/10"}, {"measurement": "Illness (mice that had an illness score/total)", "setting": "HSV-2 MS strain; [5]", "result": "10/10"}, {"measurement": "Survival (surviving/total mice)", "setting": "HSV-2 MS strain; [5]", "result": "10/10"}, {"measurement": "Clinical Scores Overall Mean", "setting": "HSV-2 MS strain; [5]", "result": 0.07413}, {"measurement": "protein binding", "setting": "[3]", "result": "< 15", "unit": "%"}, {"measurement": "half-life", "setting": "[4]; approximately", "result": "2.5 to 3.4", "unit": "h"}, {"measurement": "Mean AUC", "setting": "[4]; in vivo", "result": "2270 to 19620", "unit": "ng·h/mL"}, {"measurement": "time to reach maximum concentration", "setting": "[4]; in vivo", "result": "1.6 to 1.9", "unit": "h"}]}, {"smiles": "CC(=O)OCC(CCn1cnc2cnc(N)nc21)COC(C)=O", "note": "[B, Famciclovir]", "values": [{"measurement": "Number Undetectable <3 (qPCR copy number/rxn)", "setting": "HSV-2; [7]", "result": 2}, {"measurement": "qPCR Copy number/rxn Overall Mean", "setting": "HSV-2; [7]", "result": 28.32, "unit": "Copy number/rxn"}, {"measurement": "intracellular half-life", "setting": "HSV infected cells", "result": "10 to 20", "unit": "h"}, {"measurement": "Clinical Observations: Dead (animals)", "setting": "[2]; Group 3: Famcyclovir 63 mg/kg po, died during first blood collection", "result": 1}, {"measurement": "Clinical Observations: Dead (animals)", "setting": "[2]; Group 3: Famcyclovir 63 mg/kg po, died during first blood collection, listed as FCV", "result": "another animal died"}, {"measurement": "clinical score index (fraction of mice with a clinical score)", "setting": "HSV-2 MS strain; Group 2 (B alone), B 63 mg/kg", "result": 0.8}, {"measurement": "Clinical (mice that had a clinical score/total)", "setting": "HSV-2 MS strain; [7]", "result": "8/10"}, {"measurement": "Hair loss (mice that had hair loss/total)", "setting": "HSV-2 MS strain; [7]", "result": "6/10"}, {"measurement": "Illness (mice that had an illness score/total)", "setting": "HSV-2 MS strain; [7]", "result": "9/10"}, {"measurement": "Survival (surviving/total mice)", "setting": "HSV-2 MS strain; [7]", "result": "9/10"}, {"measurement": "Clinical Scores Overall Mean", "setting": "HSV-2 MS strain; [7]", "result": 0.3125}, {"measurement": "bioavailability", "setting": "[4]; in vivo", "result": 77, "unit": "%"}, {"measurement": "plasma half-life", "setting": "[4]; in vivo", "result": "2 to 2.5", "unit": "h"}, {"measurement": "time to reach maximum concentration", "setting": "[4]; in vivo", "result": "0.5 to 0.75", "unit": "h"}]}]}
